Reference: PubChem BioAssay (NCI)
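Tested at 5 concentrations; 48 h exposure; 96-well plates; endpoints linearly interpolated, else capped at highest concentration. GI50 is the concentration that inhibits growth by half. TGI marks complete inhibition of growth.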

What was measured:
Test in all cases: NCI-60 cell line screen, 48 h
PC-3 prostate = tested on: PC-3 prostate
NCI-H226 lung = tested on: NCI-H226 lung
HCT-116 colon = tested on: HCT-116 colon
SF-295 CNS = tested on: SF-295 CNS
TK-10 renal = tested on: TK-10 renal
KM12 colon = tested on: KM12 colon
RPMI-8226 leukemia = tested on: RPMI-8226 leukemia
UACC-62 melanoma = tested on: UACC-62 melanoma
SF-539 CNS = tested on: SF-539 CNS
SR leukemia = tested on: SR leukemia

Compound	TGI (PC-3 prostate) [µM]	TGI (NCI-H226 lung) [µM]	TGI (HCT-116 colon) [µM]	TGI (SF-295 CNS) [µM]	TGI (TK-10 renal) [µM]	TGI (KM12 colon) [µM]	TGI (RPMI-8226 leukemia) [µM]	TGI (UACC-62 melanoma) [µM]	TGI (SF-539 CNS) [µM]	GI50 (PC-3 prostate) [µM]	GI50 (NCI-H226 lung) [µM]	GI50 (HCT-116 colon) [µM]	GI50 (SF-295 CNS) [µM]	GI50 (TK-10 renal) [µM]	GI50 (KM12 colon) [µM]	GI50 (RPMI-8226 leukemia) [µM]	GI50 (UACC-62 melanoma) [µM]	GI50 (SF-539 CNS) [µM]	TGI (SR leukemia) [µM]	GI50 (SR leukemia) [µM]
CCCNC(=S)/N=C/c1c(O)c2ccccc2[nH]c1=O	> 100	> 100	> 100	> 100	> 100	> 100	> 100	> 100	> 100											
NS(=O)(=O)c1ccc(N(/C=C/C(=O)C(F)(F)F)CC(=O)c2ccc(Cl)cc2)cc1	84.1	94.1	40	74.4	87.8	73.7	53.6	91.6	> 100	26.4	28.9	18.7	26.2	29.7	24.2	20.2	27.7	43.4		
CCc1c(OC(C)=O)c2c(NC3OC(COC(C)=O)C(OC(C)=O)C(OC(C)=O)C3OC(C)=O)nc(OC)nc2oc1=O (stereo not given)		> 100	> 100	> 100	> 100	> 100	> 100	> 100	> 100											
CCc1cccc(C)c1NC(=O)C(=O)Cc1nc2ccccc2o1		> 100	> 100	> 100	> 100		> 100	> 100	> 100										> 100	
COC(=O)[C@]1(C)CCCC2(C)C1CC[C@H]1C=C(C)[C@H]3CCC12C3 (stereo not given in full)		> 100	> 100	> 100	> 100	> 100	> 100	> 100	> 100										> 100	
COc1ccc2oc(-c3cccnc3)cc(=O)c2c1		> 100	> 100	> 100		> 100	> 100	> 100												
CCOc1ccc2c(c1)[n+]([O-])c(-c1ccccc1Cl)c(N)[n+]2[O-]		> 100	> 100	> 100		> 100			> 100										> 100	
COC1[C@@H](OC(C)=O)[C@@H](NC(=O)C(Cl)(Cl)Cl)C(I)[C@@H](N2C(=O)c3ccccc3C2=O)[C@H]1OC (stereo not given in full)		> 100	> 100	> 100		> 100	> 100	> 100	> 100										> 100	
CCOc1ccc(N2C(=O)/C(=C/c3ccc(N(CCC#N)CCC#N)cc3)N=C2c2cc([N+](=O)[O-])ccc2Cl)cc1		> 100	39.5	83.7	> 100	55.3	> 100	83.3	> 100											
O=C1NC(=S)NNC12c1ccccc1-c1ccccc12		> 10			> 10	> 10	> 10	> 10	> 10										> 10	
O=[N+]([O-])c1ccc(-n2nnc(C3=NCCN3)c2-c2ccc(Cl)cc2)cc1		> 100	> 100	> 100	> 100	> 100	> 100	> 100	> 100										> 100	
COc1cccc(/C=N/[N-]C(=O)c2ccncc2)c1[O-].[Cu+2].[OH3+]		> 100	93.9	> 100	> 100	> 100	> 100	> 100	76.8		> 100	23.8	> 100	> 100	> 100	> 100	28.9	18.2	92	26.9
COc1ccncc1C#Cc1cncc(C(=O)Nc2ccc(CN3CCN(C)CC3)c(C(F)(F)F)c2)c1	> 100	> 100	> 100	> 100	> 100	64.5		> 100	66.6	27.3	4.6	6.72	37.3	47.1	0.326		13.6	5.39		
C=CCCCCCCCCCCC1(O)C=CC2=[N+](CCCCCN=C(N)N)CCCN21 (stereo not given)	6.39	21	> 45.2	24.9	4.56	18.7	29.5	28.9	7.71	0.466	3.86	12.4	7.2	1.33	3.42	2.61	13.3	2.84		
O=C1c2ccccc2C2(O)c3cc4ccccc4cc3OC12O (stereo not given)		> 100	> 100	> 100	> 100	> 100	> 100	> 100	> 100											
Cc1csc(Nc2nc(-c3cccc(Br)c3)nc(C(Cl)(Cl)Cl)n2)n1	> 100	> 100	> 100	> 100	> 100	4.82	> 100	> 100	> 100	1.92	> 100	3.05	2.17	2.25	1.58	2.19	3.35	3.09		
Cn1cnc([N+](=O)[O-])c1S(=O)(=O)Oc1ccccc1	62	60	13.2	> 73	3.81	> 78.4	17.6	32.2	29.8	20.6	19.8	5.37	29.9	1.99	26.2	4.69	14.9	14		
Cc1ccc(S(=O)(=O)N/N=C/c2oc(-c3ccncc3)c(-c3ccncc3)c2[N+](=O)[O-])cc1		> 100	> 100	> 100	> 100	> 100		> 100	> 100										> 100	
